Molecular target: T1, SOX18 (GFP-SOX18 / SOX18-Cherry-myc homodimer) (Homo sapiens, UniProt P35713)
T1 construct: full-length human SOX18, synthetic gene; N-terminal GFP-tagged and C-terminal Cherry-cMyc-tagged copies co-expressed cell-free in Leishmania tarentolae extract, not purified; homodimer
T1 sequence (P35713 1-384): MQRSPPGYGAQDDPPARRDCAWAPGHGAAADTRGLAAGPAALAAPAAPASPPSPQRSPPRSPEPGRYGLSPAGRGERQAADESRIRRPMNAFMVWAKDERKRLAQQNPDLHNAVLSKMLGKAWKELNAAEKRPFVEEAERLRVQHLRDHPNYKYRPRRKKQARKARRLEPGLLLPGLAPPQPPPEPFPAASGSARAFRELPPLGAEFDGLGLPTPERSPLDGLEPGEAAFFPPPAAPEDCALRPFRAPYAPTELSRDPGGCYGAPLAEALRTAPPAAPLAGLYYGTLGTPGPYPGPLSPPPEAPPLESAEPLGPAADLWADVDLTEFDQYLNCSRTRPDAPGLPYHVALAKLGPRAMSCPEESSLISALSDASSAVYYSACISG
Experiment: AlphaScreen disruption of SOX18-SOX18 homodimer in cell-free lysate
Assay type: biochemical
Conditions: protein-protein interaction disruption; no IR5 DNA; buffer B (25 mM HEPES, 50 mM NaCl, 0.001% NP40, 0.001% casein); 1 h; 0.7% DMSO

`O=C(O)c1c(O)cccc1CCc1ccc2ccccc2c1` [Sm4] showed an IC50 of roughly 3000 nM.
